Laboratory results taken from patent publication US10639380B2, “Flavivirus-binding, entry-obstructing, protease-resistant peptide (RI57)” (priority 2016, dated 2020).
Read-outs that look alike come from different tables or passages of the source. Square brackets hold non-standard residues; d marks the D form. Peptide text beside a SMILES is read from it.

Tests used:
[1] = test system: DENV2; assay: qRT-PCR virus-binding assay; assay type: cell-based, dengue virus
Procedure: Further to characterize DENV binding to host cells, experiments were conducted to analyze the first step in the process of infection. Infection of LLC-MK2 target cells in six-well plates was executed in duplicate using 10^5 FFU of DENV2 pre-incubated 45 min at 4° C. with either DN57, or RI57 peptide, or pooled heterotypic anti-DENV human serum. Following said 45 min exposure at 4° C., infected monolayers were washed with PBS and harvested by cell scraping, added to a 1.5 ml microfuge tube containing 350 μl AR-200 silicone oil (Sigma-Aldrich, St. Louis, Mo.), mixed with 150 μl silicone fluid (Thomas, Swedesboro, N.J.), and microfuge spun 1 min at 14,000 rpm to separate unbound virus from cell-bound virus. The tubes were then submerged in liquid nitrogen for 30 sec to freeze the contents. The cell pellets with (or without) bound virus were recovered by removing the bottoms of the tubes with small wire clippers and placing them in 15 ml conical tubes. By means of the Qiagen Viral RNA Extraction Kit (Qiagen, Chatsworth, Calif.), viral RNA was extracted from cell pellets.
Using the Quantitect SYBR Green RT-PCR kit (Qiagen Inc., Chatsworth, Calif.), qRT-PCR was performed on the extracted RNA. Manufacturer's specifications and amplification protocols were followed utilizing dengue-specific primers: (DenF: 5-[…]-3 and DenR: 5-[…]-3). […] The following amplification protocol was used: 50° C. for 20 min to reverse transcribe the RNA; 95° C. for 15 min to activate the HotStart Taq DNA Polymerase; 45 PCR cycles: 94° C. for 15 sec; 50° C. for 15 sec; 72° C. for 30 sec; and fluorescence data acquisition was the final step. […]
To test whether DN57 and RI57 interfere directly with virus binding to target cells, binding assays were conducted using qRT-PCR to monitor attachment of virus to target cells. […] RNA was then extracted from the cell pellets and amplified with DENV2-specific primers to quantitate the presence of virus. […]

[2] = test system: DENV2; assay: LLC-MK2 FFU assay after trypsin exposure of peptide; assay type: cell-based, dengue virus
Procedure: Table 7. […] The peptides were exposed to trypsin for ten minutes at 37° C. before STI was added and further incubated ten minutes. The resulting peptide, in each case, was incubated with DENV2 for 1 hour at 20° C. and then this preparation used to infect confluent LLC-MK2 monolayers.

[3] = in vitro; conditions: rhesus monkey, LLC-MK2 cells (confluent monolayers)
Procedure: Possible direct cytotoxicity caused by peptide exposure to proliferating LLC-MK2 monolayers was measured using the TACS™ MTT cell proliferation assay (R&D Systems, Inc., Minneapolis, Minn.) according to the manufacturer's instructions. The MTT assay detects and measures mitochondrial reductase activity observable in viable cells. […] A Tecan GeniosPro plate reader (Tecan US, Durham, N.C.) was used to measure absorbance at 560 nm.
Error bars show ±standard deviations (±sd) of the means with an asterisk indicating instances of statistically-significant differences from control according to Dunnett's post hoc test (p<0.05).

[4] = test system: DENV2; assay: Post-binding FFU assay; assay type: cell-based, dengue virus; conditions: DN57 added after virus bound at 4° C.; data not shown, see Costin, et al., 2010
Procedure: Experiments were conducted further to characterize observed inhibitory effects as to whether these may have been due to interference with interactions occurring pre-binding, versus post-binding, of virions and LLC-MK2 target cells. An estimated 200 FFU of DENV2 were allowed to interact with target cells for 1 h at 4° C., permitting binding while preventing internalization. Unbound virus was washed off with PBS at 4° C., DN57 added, and the cultures incubated at 4° C. for 1 h, again washed in 4° C. PBS, and then warmed to 37° C. Finally, agarose overlays, incubation, and immunological detection assays were performed as described for the focus-forming assay.
Inasmuch as it was determined that inhibition by DN57 occurs at a viral-entry step, whether infection could still be inhibited after virus had bound to the surface of target cells was tested. In these experiments, virus was allowed to bind to cells at 4° C., then treated with increasing concentrations of DN57 before warming the cells to 37° C. providing conditions in favor of viral progression.

[5] = 1:2 dilution of NHS, 37° C., 24 h
Procedure: Lane 1 contains peptide alone/time=0; lane 2, peptide at 37° C./time=24 h; lane 3, peptide in a 1:2 dilution of NHS/time=0; lane 4, peptide in a 1:2 dilution of NHS @ 37° C./time=24 h; and lane 5, a 1:2 dilution of NHS with no peptide at 37° C./time=24 h.

[6] = test system: trypsin; conditions: peptide incubated in trypsin at 37° C. before adding STI
Procedure: The image documents 10-20% gradient gels run electrophoretically (e-gel), labeled with Imperial Protein Stain, and photographed. An e-gel was performed for each peptide, stained with Imperial stain, and photographed. The arrow markers show both the identity of the peptide run and its final location after migration. For each peptide assessment, lanes 1 contain peptide alone; lanes 2, peptide plus soybean trypsin inhibitor (STI); and lanes 3, peptide incubated in trypsin at 37° C. before adding STI.

[7] = test system: DENV2; assay: Post-entry FFU assay; assay type: cell-based, dengue virus; conditions: any DN57 concentration; data not shown, see Costin, et al., 2010
Procedure: Experiments were conducted further to characterize observed inhibitory effects to determine whether they actually may have been due to interference with post-entry steps in the viral life cycle. To this end, approximately 200 FFU of DENV2 (without DN57) were allowed the opportunity to bind and then enter target LLC-MK2 cells for 1 h at 37° C. as described for the focus-forming assay. Any unbound virus was then removed by rinsing with PBS. Next, DN57 was added to the cells post-entry for 1 h at 37° C. Cultures again were washed with PBS and agarose overlays, incubation, and immunological detection assessments were performed as described for the focus-forming assay.

[8] = test system: DENV2; assay: Pre-binding FFU assay (reversibility of peptide binding); assay type: cell-based, dengue virus
Procedure: Experiments were conducted further to characterize observed inhibitory effects and determine whether these may have been due to unintended interference owing to modifications of target LLC-MK2 cell surfaces. RI57 was incubated with target cells for 1 h at 4° C., the monolayer cells were then rinsed with PBS, and approximately 200 FFU of DENV2 allowed to infect the cells at 4° C. Agarose overlays, incubation, and immunological detection tests were conducted as described above for the focus-forming assay.
In this assay, DN57 or RI57 was added to target cells for 1 h prior to infection with DENV2 to determine whether these peptides inhibit entry through interaction directly with target cells. […] Table 5. (and also FIG. 7) presents results showing that peptide binding can be reversible. (and FIG. 5.). Introducing a step diluting the concentration of peptide 10-fold after incubating/1 h at 20° C. and then infecting immediately thereafter reverses this inhibition. Errors around the means are depicted as ±sd.

[9] = test system: DENV4
Procedure: (§1) Twenty-four hours prior to infection, LLC-MK2 target cells were seeded at a density of 1.0×10^5 cells per well of an E-well plate. Approximately 200 FFU of virus were incubated with or without peptides in serum-free DMEM for 1 h at 20° C. Virus/peptide or virus/control mixtures were allowed to infect confluent target cell monolayers for 1 h at 37° C., rocking every 15 min, after which time the medium was aspirated and monolayers overlaid with fresh DMEM plus v/v 10% FBS containing v/v 0.85% Sea-Plaque Agarose (Cambrex Bio Science, Rockland, Me.). To allow proper setting, monolayers with agar overlays were incubated 20 min at 4° C. Next, infected cells were incubated at 37° C. with 5% CO2 for three days (DENV1, -3, and -4) or five days (DENV2). Then, infected cultures were fixed with 10% formalin overnight at 4° C., permeabilized with v/v 70% ethanol for 20 min, and rinsed with phosphate-buffered saline, pH 7.4 (PBS) prior to immunostaining. Viral foci were detected and enumerated using supernatant from mouse anti-DENV hybridoma E60 (obtained from the Department of Pathology & Immunology, Washington University, St. Louis, Mo.) followed by horseradish peroxidase-conjugated goat anti-mouse immunoglobulin (Pierce, Rockford, Ill.) and developed using AEC chromogen substrate (Dako, Carpinteria, Calif.). Results have been expressed as an average of two independent trials (at least) with three replicates each.

[10] = test system: DENV3
Procedure: as §1

[11] = test system: DENV2
Procedure: as §1

[12] = test system: DENV1
Procedure: as §1

[13] = test system: DENV2; conditions: as previously observed; cited from earlier work

## CSCC[C@H](NC(=O)[C@H](Cc1c[nH]c2ccccc12)NC(=O)[C@@H](N)CCCNC(=N)N)C(=O)N[C@H](C(=O)N[C@@H](Cc1c[nH]c2ccccc12)C(=O)N[C@@H](CCCNC(=N)N)C(=O)N[C@@H](Cc1c[nH]cn1)C(=O)N[C@@H](Cc1c[nH]c2ccccc12)C(=O)N[C@@H](Cc1ccccc1)C(=O)N[C@@H](Cc1c[nH]cn1)C(=O)N[C@@H](CCCNC(=N)N)C(=O)N[C@@H](CC(C)C)C(=O)N[C@@H](CCCNC(=N)N)C(=O)N[C@@H](CC(C)C)C(=O)N1CCC[C@H]1C(=O)N[C@@H](Cc1ccc(O)cc1)C(=O)N[C@@H](CC(N)=O)C(=O)N1CCC[C@H]1C(=O)NCC(=O)N[C@@H](CCCCN)C(=O)N[C@@H](CC(N)=O)C(=O)N[C@@H](CCCCN)C(=O)N[C@@H](CCC(N)=O)C(=O)N[C@@H](CC(N)=O)C(=O)N[C@@H](CCC(N)=O)C(=O)N[C@@H](CCC(N)=O)C(=O)N[C@@H](Cc1c[nH]c2ccccc12)C(=O)N1CCC[C@H]1C(=O)O)C(C)C [DN57, reference compound] (H-RWMVWRHWFHRLRLPYNPGKNKQNQQWP-OH; N-terminus and C-terminus assumed)
[1]; DENV2 + 20 uM peptide
  % Infection Inhibition: 96.4%
[1]; DENV2 + 20 uM peptide + Trypsin + STI
  % Infection Inhibition: 5.2%
[1]; virus co-incubated with peptide 45 min at 4° C.
  binding of virus to cells: inhibit binding of virus to cells
[2]; DENV2 + 20 uM peptide
  % Infection Inhibition: 96.4%
[2]; DENV2 + 20 uM peptide + Trypsin + STI (trypsin ten minutes at 37° C.)
  % Infection Inhibition: 5.2%
[2]; trypsin ten minutes at 37° C. before STI
  DENV2 inhibitory activity after trypsin exposure: did not
[3]
  viability at 24 h, 0.1 µM: 100%
  viability at 24 h, 0.5 µM: 98.6%
  viability at 24 h, 1 µM: 100%
  viability at 24 h, 5 µM: 97.8%
  viability at 24 h, 10 µM: 95.9%
  viability at 24 h, 15 µM: 92.8%
  viability at 24 h, 20 µM: 76.4%
  viability at 24 h, 25 µM: 80.2%
  viability at 24 h, 30 µM: 54.7%
  viability at 24 h, 35 µM: 55.1%
  viability at 24 h, 40 µM: 50.6%
[4]
  DENV-2 infection after virus binding to cells, before entry: inhibits DENV-2 infection
[5]
  degradation in normal human serum (e-gel): absent
[6]
  trypsin cleavage (e-gel): degraded
[7]
  viral replication when peptide added post-entry: no inhibition of viral replication was observed
[8]; PBS Rinse (text: peptide diluted 10-fold after incubation, then infecting)
  % DENV2 Infection Inhibition: −2.8%
[8]; incubation with 10 μM/1 h at 20° C., no rinse
  % DENV2 Infection Inhibition: 83.1%
[8]; peptide added to target cells for 1 h prior to infection
  inhibition on treatment of target cells with peptide prior to DENV2 infection: no evidence of inhibition

## CSCC[C@@H](NC(=O)[C@H](NC(=O)[C@@H](Cc1c[nH]c2ccccc12)NC(=O)[C@@H](CCCNC(=N)N)NC(=O)[C@@H](Cc1c[nH]cn1)NC(=O)[C@@H](Cc1c[nH]c2ccccc12)NC(=O)[C@@H](Cc1ccccc1)NC(=O)[C@@H](Cc1c[nH]cn1)NC(=O)[C@@H](CCCNC(=N)N)NC(=O)[C@@H](CC(C)C)NC(=O)[C@@H](CCCNC(=N)N)NC(=O)[C@@H](CC(C)C)NC(=O)[C@H]1CCCN1C(=O)[C@@H](Cc1ccc(O)cc1)NC(=O)[C@@H](CC(N)=O)NC(=O)[C@H]1CCCN1C(=O)CNC(=O)[C@@H](CCCCN)NC(=O)[C@@H](CC(N)=O)NC(=O)[C@@H](CCCCN)NC(=O)[C@@H](CCC(N)=O)NC(=O)[C@@H](CC(N)=O)NC(=O)[C@@H](CCC(N)=O)NC(=O)[C@@H](CCC(N)=O)NC(=O)[C@@H](Cc1c[nH]c2ccccc12)NC(=O)[C@H]1CCCN1)C(C)C)C(=O)N[C@H](Cc1c[nH]c2ccccc12)C(=O)N[C@H](CCCNC(=N)N)C(=O)O [RI57] (H-[dP][dW][dQ][dQ][dN][dQ][dK][dN][dK]G[dP][dN][dY][dP][dL][dR][dL][dR][dH][dF][dW][dH][dR][dW][dV][dM][dW][dR]-OH; N-terminus and C-terminus assumed)
[9]; 0.1 uM peptide
  % Inhibition DENV4: 18.9%
[9]; 0.5 uM peptide
  % Inhibition DENV4: −0.7%
[9]; 1.0 uM peptide
  % Inhibition DENV4: −11.8%
[9]; 5.0 uM peptide
  % Inhibition DENV4: −41.8%
[9]; 10.0 uM peptide
  % Inhibition DENV4: 55.5%
[9]; 20.0 uM peptide
  % Inhibition DENV4: 94.4%
[10]; 0.1 uM peptide
  % Inhibition DENV3: 15.1%
[10]; 0.5 uM peptide
  % Inhibition DENV3: 3.3%
[10]; 1.0 uM peptide
  % Inhibition DENV3: −73.1%
[10]; 5.0 uM peptide
  % Inhibition DENV3: −9.7%
[10]; 10.0 uM peptide
  % Inhibition DENV3: 63.3%
[10]; 20.0 uM peptide
  % Inhibition DENV3: 90.1%
[10]; DENV3, sigmoidal curve-fitting to dose-response curve
  IC50: 5.9 µM
[11]; 0.1 uM peptide
  % Inhibition DENV2: 6.2%
[11]; 0.5 uM peptide
  % Inhibition DENV2: −1.7%
[11]; 1.0 uM peptide
  % Inhibition DENV2: −5.9%
[11]; 5.0 uM peptide
  % Inhibition DENV2: 4.3%
[11]; 10.0 uM peptide
  % Inhibition DENV2: 69.8%
[11]; 20.0 uM peptide
  % Inhibition DENV2: 97.8%
[11]; DENV2, sigmoidal curve-fitting to dose-response curve
  IC50: 7.4 µM
[3]
  viability at 24 h, 0.1 µM: 95.9%
  viability at 24 h, 0.5 µM: 96.5%
  viability at 24 h, 1 µM: 95%
  viability at 24 h, 5 µM: 95.9%
  viability at 24 h, 10 µM: 95.3%
  viability at 24 h, 15 µM: 100%
  viability at 24 h, 20 µM: 101%
  viability at 24 h, 25 µM: 101%
  viability at 24 h, 30 µM: 104%
  viability at 24 h, 35 µM: 94.3%
  viability at 24 h, 40 µM: 92%
[5]
  degradation in normal human serum (e-gel): remains completely intact
[6]
  trypsin cleavage (e-gel): resistant to trypsin cleavage
[12]; 0.1 uM peptide
  % Inhibition DENV1: 2.4%
[12]; 0.5 uM peptide
  % Inhibition DENV1: 16.2%
[12]; 1.0 uM peptide
  % Inhibition DENV1: −43.6%
[12]; 5.0 uM peptide
  % Inhibition DENV1: 63.8%
[12]; 10.0 uM peptide
  % Inhibition DENV1: 97.3%
[12]; 20.0 uM peptide
  % Inhibition DENV1: 100.0%
[12]; DENV1, sigmoidal curve-fitting to dose-response curve
  IC50: 4.6 µM

## heparin sulfate
[13]
  binding of dengue virus to cells (control): dramatically reduces binding of dengue virus to cells
